Measurements from US8067424B2, “Selective inhibitors for cyclin-dependent kinases” (Emory University, priority 2007, dated 2011).
Where two headings read alike, the source gives them in different places.

What was measured:
Assay type in all cases: biochemical
EPH-A2 = EPH-A2 (Homo sapiens, UniProt P29317); experiment: Kinase screen: EPH-A2 assay; conditions: 10 micromolar compound; for remaining activity at 10 µM: read-out: mean activity remaining (as a percentage of the original activity), EPH A2
Procedure: (§1) Generally, the same procedure was used for all assays. Since the total assay volume was 25.5 microliters, 0.5 microliters of inhibitors at 51× assay concentration were added to the plates before any other addition.
(§2) The basic procedure was to add 0.5 microliters inhibitor/control in DMSO to plate. Fifteen microliters of enzyme/substrate/buffer mix were added and incubated for 5 min. Ten microliters MgATP at the relevant concentration were added and incubated for 30 min. The assay was stopped by adding 5 microliters of 3% orthophosphoric acid. The assay was transferred to a p81 filter plate and read in a scintillation counter of 30 sec/well. Note that this assay procedure was not followed for MKK1, which instead involved a two-step assay, and PKC alpha, which required the addition of lipid vesicles.
(§3) EPH-A2 assay: EPH-A2 (5-20 mU diluted in 50 mM Tris pH 7.5, 0.1 mM EGTA, 1 mg/ml BSA) was assayed against a substrate peptide (Poly Glut Tyr) in a final volume of 25.5 μl containing 50 mM Tris pH 7.5, 0.1 mg/ml substrate peptide, 10 mM magnesium acetate and 0.05 mM [33P-g-ATP] (50-1000 cpm/pmole) and incubated for 30 min at room temperature. Assays were stopped by addition of 5 μl of 0.5 M (3%) orthophosphoric acid and then harvested onto P81 Unifilter plates with a wash buffer of 50 mM orthophosphoric acid.

PIM1 = PIM1 (Homo sapiens, UniProt P11309); experiment: Kinase screen: PIM1 assay
Procedure: as §1, §2
as §3, with “PIM1” for “EPH-A2”, “EGTA, 0.1% b-mercaptoethanol,” for “EGTA,”, “([…]) (SEQ ID NO: 23)” for “(Poly Glut Tyr)”, “0.05% b-mercaptoethanol, 300 μM” for “0.1 mg/ml”, “0.02” for “0.05”

DYRK3 = target: T1, DYRK3 (Homo sapiens, UniProt O43781); experiment: Kinase screen: DYRK3 assay
T1 sequence (O43781 1-588): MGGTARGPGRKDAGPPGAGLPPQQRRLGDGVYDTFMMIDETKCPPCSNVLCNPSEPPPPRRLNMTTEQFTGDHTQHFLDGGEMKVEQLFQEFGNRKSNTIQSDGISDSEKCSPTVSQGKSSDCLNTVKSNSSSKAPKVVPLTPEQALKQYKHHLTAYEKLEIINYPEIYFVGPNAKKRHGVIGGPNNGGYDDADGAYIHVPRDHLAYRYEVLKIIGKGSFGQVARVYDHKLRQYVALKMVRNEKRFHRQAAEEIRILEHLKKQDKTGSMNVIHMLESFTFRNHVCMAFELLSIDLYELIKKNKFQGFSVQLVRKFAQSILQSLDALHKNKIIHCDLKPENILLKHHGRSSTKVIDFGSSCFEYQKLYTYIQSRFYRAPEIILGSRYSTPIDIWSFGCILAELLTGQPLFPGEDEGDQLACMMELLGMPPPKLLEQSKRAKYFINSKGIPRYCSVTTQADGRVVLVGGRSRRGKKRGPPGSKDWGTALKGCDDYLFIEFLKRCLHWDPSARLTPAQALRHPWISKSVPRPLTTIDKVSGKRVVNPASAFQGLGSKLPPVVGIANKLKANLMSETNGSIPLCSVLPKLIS
Procedure: as §1, §2
DYRK3 assay: DYRK3 (5-20 mU of diluted in 50 mM Tris pH7.5, 0.1 mM EGTA) was assayed against Woodtide ([…]) (SEQ ID NO: 29) in a final volume of 25.5 μl containing 50 mM Tris pH 7.5, 0.1 mM EGTA, 350 μM substrate peptide, 10 mM Magnesium acetate and 0.005 mM [33P-g-ATP] (50-1000 cpm/pmole) and incubated for 30 min at room temperature. Assays were stopped by addition of 5 μl of 0.5 M (3%) orthophosphoric acid and then harvested onto P81 Unifilter plates with a wash buffer of 50 mM orthophosphoric acid.

SmMLCK = SmMLCK (Homo sapiens, UniProt Q15746); experiment: Kinase screen: smMLCK assay
Procedure: as §1, §2
(500-1000 cpm/pmole) and incubated for 30 mins at room temperature. Assays were stopped by addition of 5 μl of 0.5M (3%) orthophosphoric acid. Assays were harvested onto P81 Unifilter plates using a wash buffer of 50 mM orthophosphoric acid.

MARK3 = MARK3 (Homo sapiens, UniProt P27448); experiment: Kinase screen: MARK3 assay
Procedure: as §1, §2
MARK3 assay: MARK3 (5-20 mU diluted in 50 mM Tris pH 7.5, 0.1 mM EGTA, 0.1% b-mercaptoethanol, 1 mg/ml BSA) was assayed against CHKtide substrate ([…]) (SEQ ID NO: 12) in a final volume of 25.5 μl containing 50 mM Tris pH 7.5, 0.05% b-mercaptoethanol, 300 μM substrate peptide, 10 mM magnesium acetate and 0.005 mM [33P-g-ATP] (50-1000 cpm/pmole) and incubated for 30 min at room temperature. Assays were stopped by addition of 5 μl of 0.5 M (3%) orthophosphoric acid and then harvested onto P81 Unifilter plates with a wash buffer of 50 mM orthophosphoric acid.

AMPK = experiment: Kinase screen: AMPK assay; conditions: for mean activity remaining (as a percentage of the original activity), AMPK: 10 micromolar compound
Procedure: as §1, §2
AMPK assay: AMPK (5-20 mU diluted in 50 mM Hepes pH 7.5, 1 mM DTT, 0.02% Brij35) was assayed against SAMS substrate peptide ([…]) (SEQ ID NO: 11) in a final volume of 25.5 μl containing 50 mM Hepes pH 7.5, 1 mM DTT, 0.02% Brij35, 0.4 mM SAMS peptide, 0.196 mM AMP, 10 mM magnesium acetate and 0.05 mM [33P-g-ATP] (50-1000 cpm/pmole) and incubated for 30 min at room temperature. Assays were stopped by addition of 5 μl of 0.5 M (3%) orthophosphoric acid and then harvested onto P81 Unifilter plates with a wash buffer of 50 mM orthophosphoric acid.

[1] = 10 micromolar compound, read-out: mean activity remaining (as a percentage of the original activity), PIM1
[2] = 10 micromolar compound, read-out: mean activity remaining (as a percentage of the original activity), DYRK 3
[3] = 10 micromolar compound, read-out: mean activity remaining (as a percentage of the original activity), SmMLCK
[4] = 10 micromolar compound, read-out: mean activity remaining (as a percentage of the original activity), MARK 3

EPH-A2, sequence (P29317 24-976, species assumed): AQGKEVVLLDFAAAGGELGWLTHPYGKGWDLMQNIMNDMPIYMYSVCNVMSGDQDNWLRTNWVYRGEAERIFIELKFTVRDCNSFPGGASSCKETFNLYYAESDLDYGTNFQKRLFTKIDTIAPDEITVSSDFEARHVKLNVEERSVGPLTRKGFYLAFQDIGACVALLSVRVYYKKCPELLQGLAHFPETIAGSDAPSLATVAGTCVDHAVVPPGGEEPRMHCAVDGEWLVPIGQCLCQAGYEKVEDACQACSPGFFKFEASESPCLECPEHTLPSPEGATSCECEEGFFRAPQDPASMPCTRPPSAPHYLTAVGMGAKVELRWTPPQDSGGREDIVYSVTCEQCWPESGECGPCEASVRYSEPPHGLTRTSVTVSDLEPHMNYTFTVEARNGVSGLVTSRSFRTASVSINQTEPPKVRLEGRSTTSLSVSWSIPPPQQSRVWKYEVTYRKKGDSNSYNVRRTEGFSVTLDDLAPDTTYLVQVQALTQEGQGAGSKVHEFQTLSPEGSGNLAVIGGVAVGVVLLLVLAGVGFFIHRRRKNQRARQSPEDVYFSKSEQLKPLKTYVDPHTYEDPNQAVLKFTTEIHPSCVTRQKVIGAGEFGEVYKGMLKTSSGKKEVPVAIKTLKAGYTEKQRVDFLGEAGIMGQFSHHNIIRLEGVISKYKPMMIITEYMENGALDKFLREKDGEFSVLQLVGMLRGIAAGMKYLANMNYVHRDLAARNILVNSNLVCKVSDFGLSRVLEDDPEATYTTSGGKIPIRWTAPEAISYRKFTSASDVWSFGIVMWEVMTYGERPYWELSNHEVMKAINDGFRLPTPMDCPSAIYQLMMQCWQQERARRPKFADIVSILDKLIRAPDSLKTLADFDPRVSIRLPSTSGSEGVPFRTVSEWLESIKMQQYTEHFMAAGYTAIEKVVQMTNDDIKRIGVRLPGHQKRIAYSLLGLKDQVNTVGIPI
PIM1, sequence (P11309 whole entry, species assumed): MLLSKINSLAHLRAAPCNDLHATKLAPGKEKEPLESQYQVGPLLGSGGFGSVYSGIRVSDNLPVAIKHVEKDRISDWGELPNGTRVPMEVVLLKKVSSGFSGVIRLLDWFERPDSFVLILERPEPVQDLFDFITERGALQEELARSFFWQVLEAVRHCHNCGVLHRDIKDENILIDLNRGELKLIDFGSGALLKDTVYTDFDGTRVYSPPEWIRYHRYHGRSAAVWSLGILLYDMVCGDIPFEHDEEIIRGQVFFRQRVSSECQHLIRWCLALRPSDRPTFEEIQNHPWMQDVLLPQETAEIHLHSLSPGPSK
MARK3, sequence (P27448 whole entry, species assumed): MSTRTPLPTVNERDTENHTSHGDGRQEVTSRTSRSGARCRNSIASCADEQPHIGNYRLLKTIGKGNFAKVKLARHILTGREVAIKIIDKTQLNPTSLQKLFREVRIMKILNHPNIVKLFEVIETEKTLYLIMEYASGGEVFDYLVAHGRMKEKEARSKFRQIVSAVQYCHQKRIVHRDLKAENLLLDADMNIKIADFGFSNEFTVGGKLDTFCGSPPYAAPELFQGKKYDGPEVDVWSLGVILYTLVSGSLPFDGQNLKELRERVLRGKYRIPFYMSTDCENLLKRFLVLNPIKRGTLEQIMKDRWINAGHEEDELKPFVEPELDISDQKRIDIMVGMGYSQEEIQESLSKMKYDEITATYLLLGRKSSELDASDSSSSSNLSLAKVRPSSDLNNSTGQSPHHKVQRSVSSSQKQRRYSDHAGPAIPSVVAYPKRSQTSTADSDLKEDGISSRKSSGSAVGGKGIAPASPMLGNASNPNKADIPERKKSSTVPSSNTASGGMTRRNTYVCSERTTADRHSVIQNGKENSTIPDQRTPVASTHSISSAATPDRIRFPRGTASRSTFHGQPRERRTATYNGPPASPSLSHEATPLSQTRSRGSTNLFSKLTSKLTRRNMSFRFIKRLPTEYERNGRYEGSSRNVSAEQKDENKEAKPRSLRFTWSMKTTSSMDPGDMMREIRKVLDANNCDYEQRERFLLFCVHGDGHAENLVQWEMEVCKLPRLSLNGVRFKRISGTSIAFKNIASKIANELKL
SmMLCK, sequence (Q15746 923-1914): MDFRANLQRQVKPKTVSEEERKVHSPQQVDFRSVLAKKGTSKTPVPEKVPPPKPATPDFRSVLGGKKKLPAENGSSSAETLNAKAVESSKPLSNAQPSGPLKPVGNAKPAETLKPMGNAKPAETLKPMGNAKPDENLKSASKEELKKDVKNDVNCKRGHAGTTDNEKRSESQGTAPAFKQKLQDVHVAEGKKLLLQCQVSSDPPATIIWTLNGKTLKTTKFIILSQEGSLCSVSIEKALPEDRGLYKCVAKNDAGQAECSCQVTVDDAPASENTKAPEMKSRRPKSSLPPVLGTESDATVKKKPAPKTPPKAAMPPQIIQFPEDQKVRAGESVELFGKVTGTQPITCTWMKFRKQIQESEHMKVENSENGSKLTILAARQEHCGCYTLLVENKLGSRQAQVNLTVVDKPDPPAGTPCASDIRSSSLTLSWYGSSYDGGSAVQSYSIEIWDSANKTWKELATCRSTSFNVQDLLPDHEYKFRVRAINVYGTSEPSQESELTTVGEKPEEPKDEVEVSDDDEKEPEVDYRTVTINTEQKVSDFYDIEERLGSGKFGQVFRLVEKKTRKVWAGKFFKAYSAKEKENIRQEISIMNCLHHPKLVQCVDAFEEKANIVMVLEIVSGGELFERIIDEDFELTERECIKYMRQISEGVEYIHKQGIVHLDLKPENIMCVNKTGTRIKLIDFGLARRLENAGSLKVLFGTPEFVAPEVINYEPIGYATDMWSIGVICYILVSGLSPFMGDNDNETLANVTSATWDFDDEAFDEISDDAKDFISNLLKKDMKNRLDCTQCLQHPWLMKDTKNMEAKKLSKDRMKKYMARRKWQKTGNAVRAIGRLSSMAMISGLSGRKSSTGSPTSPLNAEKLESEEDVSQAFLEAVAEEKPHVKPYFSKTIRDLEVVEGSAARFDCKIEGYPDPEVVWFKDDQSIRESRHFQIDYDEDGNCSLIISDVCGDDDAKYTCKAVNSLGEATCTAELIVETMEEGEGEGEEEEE

CC[C@H](CO)Nc1cc(NCc2ccccc2)n2ncc(C(C)C)c2n1 [ICEC0067] showed a remaining activity at 10 µM (EPH-A2) of 101%, a remaining activity at 10 µM (PIM1; [1]) of 107% and a remaining activity at 10 µM (DYRK3; [2]) of 90%. The remaining activity at 10 µM (SmMLCK; [3]) was 81%, the remaining activity at 10 µM (MARK3; [4]) was 89% and the “mean activity remaining (as a percentage of the original activity), AMPK” value (AMPK) was 84%.

In the case of CC(C)c1cnn2c(NCc3ccccc3F)cc(NCCCCCN)nc12 [ICEC-0232], the “mean activity remaining (as a percentage of the original activity), EPH A2” value (EPH-A2) is reported as 92%, the “mean activity remaining (as a percentage of the original activity), PIM1” value (PIM1; 10 micromolar compound) is reported as 110% and the “mean activity remaining (as a percentage of the original activity), DYRK 3” value (DYRK3; 10 micromolar compound) is reported as 60%. The “mean activity remaining (as a percentage of the original activity), SmMLCK” value (SmMLCK; 10 micromolar compound) was 38%, the “mean activity remaining (as a percentage of the original activity), MARK 3” value (MARK3; 10 micromolar compound) was 96% and the “mean activity remaining (as a percentage of the original activity), AMPK” value (AMPK) was 75%.

CC(C)c1cnn2c(NCc3ccccc3)cc(NCCCCCCCN)nc12 [BS-181] was tested, and the remaining activity at 10 µM (PIM1; PIM1, 10 μM, read-out: Mean Remaining Enzyme Activity (%)) was 88%, the remaining activity at 10 µM (DYRK3; DYRK3, 10 μM, read-out: Mean Remaining Enzyme Activity (%)) was 87% and the remaining activity at 10 µM (SmMLCK; SmMLCK, 10 μM, read-out: Mean Remaining Enzyme Activity (%)) was 35%. For the same molecule, the remaining activity at 10 µM (MARK3; MARK3, 10 μM, read-out: Mean Remaining Enzyme Activity (%)) was 104% and the “Mean Remaining Enzyme Activity (%)” value (AMPK; AMPK, 10 μM) was 122%.

CC(C)c1cnn2c(NCc3ccccc3)cc(N[C@@H](CO)[C@H](O)CO)nc12 [ICEC0318, (3S)-3-(7-(Benzylamino)-3-isopropylpyrazolo[1,5-a]pyrimidin-5-ylamino)butane-1,2,4-triol] gave a remaining activity at 10 µM (EPH-A2) of 116%, a remaining activity at 10 µM (PIM1; [1]) of 103% and a remaining activity at 10 µM (DYRK3; [2]) of 88%. For the same molecule, the remaining activity at 10 µM (SmMLCK; [3]) was 101%, the remaining activity at 10 µM (MARK3; [4]) was 82% and the “mean activity remaining (as a percentage of the original activity), AMPK” value (AMPK) was 88%.

With C=C[C@H](CO)Nc1cc(NCc2ccccc2)n2ncc(C(C)C)c2n1 [ICEC0065] the remaining activity at 10 µM (EPH-A2) was 109%, the remaining activity at 10 µM (PIM1; [1]) was 113% and the remaining activity at 10 µM (DYRK3; [2]) was 86%. For the same molecule, the remaining activity at 10 µM (SmMLCK; [3]) was 92%, the remaining activity at 10 µM (MARK3; [4]) was 93% and the “mean activity remaining (as a percentage of the original activity), AMPK” value (AMPK) was 85%.
